From PubChem BioAssay (NCI)
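Step 1: Grow cells in 96-well plates. Step 2: Expose to compound for 48 hours at 5 concentrations. Step 3: Interpolate endpoints linearly; if unreached, use highest concentration. Abbreviation: GI50, concentration required for 50% inhibition of growth. TGI is the concentration that stops growth completely.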

How the values were obtained:
Assay in all cases: inhibition of tumour cell growth, NCI panel, 48 h
SN12C renal = test system: SN12C renal
SK-MEL-2 melanoma = test system: SK-MEL-2 melanoma
LOX IMVI melanoma = test system: LOX IMVI melanoma
COLO 205 colon = test system: COLO 205 colon
SNB-75 CNS = test system: SNB-75 CNS
IGROV1 ovarian = test system: IGROV1 ovarian
RPMI-8226 leukemia = test system: RPMI-8226 leukemia
NCI-H226 lung = test system: NCI-H226 lung
SF-295 CNS = test system: SF-295 CNS
M14 melanoma = test system: M14 melanoma
KM20L2 colon = test system: KM20L2 colon
ACHN renal = test system: ACHN renal
OVCAR-8 ovarian = test system: OVCAR-8 ovarian
A498 renal = test system: A498 renal
NCI-H522 lung = test system: NCI-H522 lung
TK-10 renal = test system: TK-10 renal
NCI-H460 lung = test system: NCI-H460 lung
SK-OV-3 ovarian = test system: SK-OV-3 ovarian
SW-620 colon = test system: SW-620 colon
U251 CNS = test system: U251 CNS
OVCAR-4 ovarian = test system: OVCAR-4 ovarian
SF-539 CNS = test system: SF-539 CNS
SK-MEL-28 melanoma = test system: SK-MEL-28 melanoma
UACC-62 melanoma = test system: UACC-62 melanoma
HCC-2998 colon = test system: HCC-2998 colon
HT29 colon = test system: HT29 colon
MALME-3M melanoma = test system: MALME-3M melanoma
OVCAR-3 ovarian = test system: OVCAR-3 ovarian
K-562 leukemia = test system: K-562 leukemia
HCT-116 colon = test system: HCT-116 colon
SNB-19 CNS = test system: SNB-19 CNS
SF-268 CNS = test system: SF-268 CNS
CAKI-1 renal = test system: CAKI-1 renal
KM12 colon = test system: KM12 colon
786-0 renal = test system: 786-0 renal
NCI-H23 lung = test system: NCI-H23 lung
A549 NSCLC = test system: A549 NSCLC
HOP-92 NSCLC = test system: HOP-92 NSCLC
RXF 393 renal = test system: RXF 393 renal
HOP-62 NSCLC = test system: HOP-62 NSCLC
MOLT-4 leukemia = test system: MOLT-4 leukemia
HCT-15 colon = test system: HCT-15 colon
UO-31 renal = test system: UO-31 renal
UACC-257 melanoma = test system: UACC-257 melanoma
SK-MEL-5 melanoma = test system: SK-MEL-5 melanoma
HL-60(TB) leukemia = test system: HL-60(TB) leukemia
OVCAR-5 ovarian = test system: OVCAR-5 ovarian
HS 578T breast = test system: HS 578T breast
BT-549 breast = test system: BT-549 breast
DU-145 prostate = test system: DU-145 prostate
CCRF-CEM leukemia = test system: CCRF-CEM leukemia
SR leukemia = test system: SR leukemia
MDA-N = test system: MDA-N
MDA-MB-231 breast = test system: MDA-MB-231 breast
T-47D breast = test system: T-47D breast
EKVX NSCLC = test system: EKVX NSCLC
MDA-MB-435 = test system: MDA-MB-435
PC-3 prostate = test system: PC-3 prostate
SNB-78 CNS = test system: SNB-78 CNS
MCF7 breast = test system: MCF7 breast

Structure (SMILES): C1C[OH+]CC[OH+]CC[OH+]CC[OH+]CC[OH+]CC[OH+]1.[Cl-].[V]
- GI50 (SN12C renal): > 100 µM
- TGI (SN12C renal): > 100 µM
- GI50 (SK-MEL-2 melanoma): 29.2 µM
- TGI (SK-MEL-2 melanoma): 98.2 µM
- GI50 (LOX IMVI melanoma): 20.7 µM
- TGI (LOX IMVI melanoma): 38.7 µM
- GI50 (COLO 205 colon): > 100 µM
- TGI (COLO 205 colon): > 100 µM
- GI50 (SNB-75 CNS): 13.9 µM
- TGI (SNB-75 CNS): 30 µM
- GI50 (IGROV1 ovarian): 13 µM
- TGI (IGROV1 ovarian): > 100 µM
- GI50 (RPMI-8226 leukemia): 64.1 µM
- TGI (RPMI-8226 leukemia): > 100 µM
- GI50 (NCI-H226 lung): 40.1 µM
- TGI (NCI-H226 lung): > 100 µM
- GI50 (SF-295 CNS): 18.7 µM
- TGI (SF-295 CNS): 43.8 µM
- GI50 (M14 melanoma): 12.1 µM
- TGI (M14 melanoma): 93.8 µM
- GI50 (KM20L2 colon): 46.5 µM
- TGI (KM20L2 colon): > 100 µM
- GI50 (ACHN renal): 31.1 µM
- TGI (ACHN renal): > 100 µM
- GI50 (OVCAR-8 ovarian): > 100 µM
- TGI (OVCAR-8 ovarian): > 100 µM
- GI50 (A498 renal): > 100 µM
- TGI (A498 renal): > 100 µM
- GI50 (NCI-H522 lung): 26.3 µM
- TGI (NCI-H522 lung): 99.5 µM
- GI50 (TK-10 renal): 20.4 µM
- TGI (TK-10 renal): 92.5 µM
- GI50 (NCI-H460 lung): 36 µM
- TGI (NCI-H460 lung): > 100 µM
- GI50 (SK-OV-3 ovarian): 45.9 µM
- TGI (SK-OV-3 ovarian): 97 µM
- GI50 (SW-620 colon): 49.6 µM
- TGI (SW-620 colon): > 100 µM
- GI50 (U251 CNS): 35.8 µM
- TGI (U251 CNS): > 100 µM
- GI50 (OVCAR-4 ovarian): 2520 nM
- TGI (OVCAR-4 ovarian): 9.27 µM
- GI50 (SF-539 CNS): 5.43 µM
- TGI (SF-539 CNS): 17.9 µM
- GI50 (SK-MEL-28 melanoma): 13.7 µM
- TGI (SK-MEL-28 melanoma): 43.5 µM
- GI50 (UACC-62 melanoma): 10.7 µM
- TGI (UACC-62 melanoma): 51.4 µM
- GI50 (HCC-2998 colon): 71.9 µM
- TGI (HCC-2998 colon): > 100 µM
- GI50 (HT29 colon): 39.7 µM
- TGI (HT29 colon): > 100 µM
- GI50 (MALME-3M melanoma): 8.19 µM
- TGI (MALME-3M melanoma): 28.7 µM
- GI50 (OVCAR-3 ovarian): 20.7 µM
- TGI (OVCAR-3 ovarian): 41.8 µM
- GI50 (K-562 leukemia): > 100 µM
- TGI (K-562 leukemia): > 100 µM
- GI50 (HCT-116 colon): 35.9 µM
- TGI (HCT-116 colon): > 100 µM
- GI50 (SNB-19 CNS): 47.1 µM
- TGI (SNB-19 CNS): > 100 µM
- GI50 (SF-268 CNS): 42.9 µM
- TGI (SF-268 CNS): > 100 µM
- GI50 (CAKI-1 renal): 36.9 µM
- TGI (CAKI-1 renal): > 100 µM
- GI50 (KM12 colon): 31.3 µM
- TGI (KM12 colon): > 100 µM
- GI50 (786-0 renal): 11.7 µM
- TGI (786-0 renal): 33.9 µM
- GI50 (NCI-H23 lung): 21.9 µM
- TGI (NCI-H23 lung): 47.7 µM
- GI50 (A549 NSCLC): 39.1 µM
- TGI (A549 NSCLC): > 100 µM
- GI50 (HOP-92 NSCLC): 31.5 µM
- TGI (HOP-92 NSCLC): 99.2 µM
- GI50 (RXF 393 renal): 4.89 µM
- TGI (RXF 393 renal): 19 µM
- GI50 (HOP-62 NSCLC): 19.2 µM
- TGI (HOP-62 NSCLC): 33.9 µM
- GI50 (MOLT-4 leukemia): 82.5 µM
- TGI (MOLT-4 leukemia): > 100 µM
- GI50 (HCT-15 colon): 50.9 µM
- TGI (HCT-15 colon): > 100 µM
- GI50 (UO-31 renal): > 100 µM
- TGI (UO-31 renal): > 100 µM
- GI50 (UACC-257 melanoma): 16.6 µM
- TGI (UACC-257 melanoma): 37.4 µM
- GI50 (SK-MEL-5 melanoma): 4.76 µM
- TGI (SK-MEL-5 melanoma): 25.3 µM
- GI50 (HL-60(TB) leukemia): 37.1 µM
- TGI (HL-60(TB) leukemia): > 100 µM

Structure (SMILES): CN(C)CCCNc1ccnc2cccc([N+](=O)[O-])c12
- TGI (OVCAR-5 ovarian): 44.1 µM
- TGI (HS 578T breast): 97.1 µM
- TGI (BT-549 breast): 43.9 µM
- TGI (DU-145 prostate): > 100 µM
- TGI (SN12C renal): 30.8 µM
- TGI (SK-MEL-2 melanoma): 33.8 µM
- TGI (LOX IMVI melanoma): 35.8 µM
- TGI (CCRF-CEM leukemia): > 100 µM
- TGI (COLO 205 colon): 15.6 µM
- TGI (SNB-75 CNS): 73.4 µM
- TGI (IGROV1 ovarian): 28.3 µM
- TGI (SR leukemia): > 100 µM
- TGI (RPMI-8226 leukemia): > 100 µM
- TGI (NCI-H226 lung): 38.2 µM
- TGI (SF-295 CNS): 36.5 µM
- TGI (M14 melanoma): 25.8 µM
- TGI (MDA-N): 47 µM
- TGI (KM20L2 colon): 25.9 µM
- TGI (ACHN renal): 24.3 µM
- TGI (OVCAR-8 ovarian): > 100 µM
- TGI (A498 renal): 30.7 µM
- TGI (NCI-H522 lung): 18.2 µM
- TGI (TK-10 renal): 36 µM
- TGI (NCI-H460 lung): 25.2 µM
- TGI (MDA-MB-231 breast): 39.6 µM
- TGI (SK-OV-3 ovarian): 22.9 µM
- TGI (SW-620 colon): 40.1 µM
- TGI (U251 CNS): > 70.7 µM
- TGI (OVCAR-4 ovarian): 20.4 µM
- TGI (SF-539 CNS): 45.1 µM
- TGI (SK-MEL-28 melanoma): 35.4 µM
- TGI (T-47D breast): 80.8 µM
- TGI (EKVX NSCLC): 19.9 µM
- TGI (HCC-2998 colon): 32.1 µM
- TGI (HT29 colon): 27 µM
- TGI (MALME-3M melanoma): 21.4 µM
- TGI (OVCAR-3 ovarian): 20.6 µM
- TGI (K-562 leukemia): > 100 µM
- TGI (HCT-116 colon): 27.7 µM
- TGI (SNB-19 CNS): 56.6 µM
- TGI (SF-268 CNS): 47.7 µM
- TGI (CAKI-1 renal): 52.8 µM
- TGI (KM12 colon): 27 µM
- TGI (786-0 renal): 37.1 µM
- TGI (NCI-H23 lung): 23.5 µM
- TGI (A549 NSCLC): 35.7 µM
- TGI (HOP-92 NSCLC): 28.8 µM
- TGI (RXF 393 renal): 61.1 µM
- TGI (HOP-62 NSCLC): > 56.9 µM
- TGI (MOLT-4 leukemia): > 100 µM
- TGI (MDA-MB-435): 42.3 µM
- TGI (PC-3 prostate): 30.3 µM
- TGI (SNB-78 CNS): 61.6 µM
- TGI (HCT-15 colon): 39.9 µM
- TGI (UO-31 renal): 38.8 µM
- TGI (UACC-257 melanoma): 30.7 µM
- TGI (MCF7 breast): 28.2 µM
- TGI (SK-MEL-5 melanoma): 24.4 µM
- TGI (HL-60(TB) leukemia): > 100 µM
